Data as given in PubChem BioAssay AID1845203 (Molecular Pharmacology Branch, DTP, NCI, 2023).
Where “and” joins values, the source holds several entries; their conditions need not be identical. Identical values can stand only once.

Test system: G-401 tumor spheroids, viability % test/control
Experiment: Anticancer human tumor G-401 cell line growth inhibition;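 note: spheroids exposed to compound for 7 days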;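 for viability, T/C: 100% = DMSO vehicle-treated spheroids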
Conditions: spheroids with HUVEC and MSC; for viability, T/C: stronger effect = lower value; active = viability on the fitted dose curve at most 10% of control; inactive = the rest
Source text: Multicellular complex tumor spheroid response to DNA repair inhibitors in combination with DNA-damaging drugs
This study explores the anticancer activities of DNA-damaging drugs and inhibitors of DNA damage repair, both as single agents and in combinations. Complex tumor spheroids comprised of malignant cells, endothelial cells and mesenchymal stem cells served as an in vitro model for human solid tumors. This model system incorporates physiologically relevant features and patient-derived or established malignant cell lines with clinically relevant genetic alterations from many tumor types. Twenty-six patient-derived or established malignant cell lines were evaluated representing sarcoma, melanoma, small cell lung cancer (SCLC), non-small cell lung cancer (NSCLC), as well as bladder, ovarian and pancreatic cancers. The concentration ranges selected for each drug and investigational agent were based upon clinically achievable concentrations if the clinical Cmax of the agent was known.
Compounds. The drugs and compounds olaparib (NSC753686), talazoparib (NSC767125), berzosertib (NSC777718), elimusertib (NSC800525), nedisertib (NSC802822), VX-984 (NSC792969), AZD-1390 (NSC803789), temozolomide (NSC362856), topotecan (NSC609699), trabectedin (NSC813783), staurosporine (NSC755774), and gemcitabine (NSC613327) were obtained from the National Cancer Institute (NCI) Developmental Therapeutics Program Chemical Repository. The FDA-approved anticancer drug set is available from the Developmental Therapeutics Program at https://dtp.cancer.gov/organization/dscb/obtaining/available_plates.htm. […] The stock solutions were prepared in dimethyl sulfoxide (DMSO, Sigma-Aldrich, St. Louis, MO, cat. D2650) at 400-fold the tested concentration and stored at -70 degrees C. Prior to their use, the stock solutions were diluted in fresh medium and the final DMSO concentration in the assay was 0.25% (v/v). All drugs and investigational agents were tested over a range starting from a high concentration at or near the clinical Cmax and decreasing in half-log increments. If the clinical Cmax for an agent had not been determined, the highest concentration tested was 10 microM.
Cell Lines. The patient-derived cancer cell (PDC) lines: 156681-154-R-J1-PDC, 283228-195-R-J1-PDC, 287954-098-R-J1-PDC, 292921-168-R-J2-PDC, 349418-098-R-PDC, 425362-245-T-J1-PDC, 556581-035-R-J1-PDC, and BL0293-F563-PDC were received from the NCI Patient-Derived Models Repository (PDMR, https://pdmr.cancer.gov). The established cell lines HS-SY-2 (RRID:CVCL_8719), MPNST, and SYO-1 (RRID:CVCL_7146) were obtained from the Sloan Kettering Institute. The alveolar soft parts sarcoma cell line ASPS-1 (RRID:CVCL_S738) was established at the NCI and grown from internal seed stocks. The following established cell lines were purchased from the American Type Culture Collection (ATCC, Manassas, VA): G-401 (ATCC, cat. CRL-1441, RRID:CVCL_0270), SW982 (ATCC, cat. HTB-93, RRID:CVCL_1734), VA-ES-BJ (ATCC, cat. CRL-2138, RRID:CVCL_1785), NCI-H719 (ATCC, cat. CRL-5837, RRID:CVCL_1582), NCI-H196 (ATCC, cat. CRL-5823, RRID:CVCL_1509), NCI-H841 (ATCC, cat. CRL-5845, RRID:CVCL_1595), NCI-H1618 (ATCC, cat. CRL-5879, RRID:CVCL_1480), NCI-H1876 (ATCC, cat. CRL-5902, RRID:CVCL_1503), DMS 114 (ATCC, cat. CRL-2066; RRID:CVCL_1174), NCI-H211 (ATCC, cat. CRL-5824; RRID:CVCL_1529), and SW 1271 (ATCC, cat. CRL-2177, RRID:CVCL_1716). The small cell lung cancer cell line COR-L88 was purchased from Sigma-Aldrich (cat. 92031917-1VL, RRID:CVCL_1141). The non-small cell lung cancer cell lines NCI-H226 (RRID:CVCL_1544) and NCI-H322M (RRID:CVCL_1557) were established at the NCI and grown from internal seed stocks. Pooled donor human umbilical vein endothelial cells (HUVEC, Lonza, cat. CC-2519) and human mesenchymal stem cells (hMSC, Lonza, cat. PT-2501) were purchased from Lonza (Walkersville, MD).
Cell Culture. All cells were maintained in an incubator at 37 degrees C and 5% CO2 with 95% humidity. […]

CC(C)n1c(=O)n(C)c2cnc3cc(F)c(-c4ccc(OCCCN5CCCCC5)nc4)cc3c21 + Cn1nnc2c(C(N)=O)ncn2c1=O
> 10 µM: IC50 (curve of first compound, second compound 1 µM) | IC50 (curve of first compound, second compound 3.16 µM) | IC50 (curve of first compound, second compound 10 µM) | IC50 (curve of first compound, second compound 31.6 µM) | IC50 (curve of first compound, second compound 100 µM)
inactive: viability, T/C (second compound 1 µM, first compound 0.0316 µM) 99.9% | viability, T/C (second compound 1 µM, first compound 0.1 µM) 104% | viability, T/C (second compound 1 µM, first compound 0.316 µM) 102% | viability, T/C (second compound 1 µM, first compound 1 µM) 104% | viability, T/C (second compound 1 µM, first compound 3.16 µM) 103% | viability, T/C (second compound 1 µM, first compound 10 µM) 76.5% | viability, T/C (second compound 3.16 µM, first compound 0.0316 µM) 81.6% | viability, T/C (second compound 3.16 µM, first compound 0.1 µM) 102% | viability, T/C (second compound 3.16 µM, first compound 0.316 µM) 102% | viability, T/C (second compound 3.16 µM, first compound 1 µM) 102% | viability, T/C (second compound 3.16 µM, first compound 3.16 µM) 99.4% | viability, T/C (second compound 3.16 µM, first compound 10 µM) 83.6% | viability, T/C (second compound 10 µM, first compound 0.0316 µM) 105% | viability, T/C (second compound 10 µM, first compound 0.1 µM) 98.9% | viability, T/C (second compound 10 µM, first compound 0.316 µM) 97.5% | viability, T/C (second compound 10 µM, first compound 1 µM) 103% | viability, T/C (second compound 10 µM, first compound 3.16 µM) 101% | viability, T/C (second compound 10 µM, first compound 10 µM) 66.2% | viability, T/C (second compound 31.6 µM, first compound 0.0316 µM) 97.8% | viability, T/C (second compound 31.6 µM, first compound 0.1 µM) 95.4% | viability, T/C (second compound 31.6 µM, first compound 0.316 µM) 97.7% | viability, T/C (second compound 31.6 µM, first compound 1 µM) 96.3% | viability, T/C (second compound 31.6 µM, first compound 3.16 µM) 90.4% | viability, T/C (second compound 31.6 µM, first compound 10 µM) 62.8% | viability, T/C (second compound 100 µM, first compound 0.0316 µM) 89.6% | viability, T/C (second compound 100 µM, first compound 0.1 µM) 92.5% | viability, T/C (second compound 100 µM, first compound 0.316 µM) 86.6% | viability, T/C (second compound 100 µM, first compound 1 µM) 88% | viability, T/C (second compound 100 µM, first compound 3.16 µM) 91.6% | viability, T/C (second compound 100 µM, first compound 10 µM) 80.1%

CC(C)n1c(=O)n(C)c2cnc3cc(F)c(-c4ccc(OCCCN5CCCCC5)nc4)cc3c21
> 10 µM: IC50 (curve of compound)
inactive: viability, T/C (compound 0.0316 µM) 87.5% and 105% and 107% | viability, T/C (compound 0.1 µM) 92.2% and 105% and 104% | viability, T/C (compound 0.316 µM) 47.9% and 100% and 108% | viability, T/C (compound 1 µM) 90.7% and 101% and 103% | viability, T/C (compound 3.16 µM) 95.9% and 98.2% and 101% | viability, T/C (compound 10 µM) 67.4% (2×) and 86.7%
